Measurements from patent US11850252B2, “Use of nor-ursodeoxycholic acid for reducing liver fat” (Dr. Falk Pharma GmbH, priority 2017, dated 2023).
Where “and” joins values, the source holds several entries; their conditions need not be identical. Equal values may be shown once.

Experiments:
[1] = tested on: Patients with a clinical diagnosis of non-alcoholic hepatic steatosis; assay: Cytokeratin 18 (M30, M65 fragments) in the course of the study; format: in vivo, human; details: for mean value of Cytokeratin 18 (M30 fragment) / mean value of Cytokeratin 18 (M65 fragment): V2 baseline
Text: In another embodiment, the patient to be treated has a serum level of cytokeratin 18 (M65) of less than 750 U/ml, or less than 600 U/ml, or less than 500 U/ml, or less than 400 U/ml, or less than 300 U/ml or even less than 250 U/ml. The level of the M65 fragment of cytokeratin-18 can be determined by known methods, e.g. by an enzyme-linked immunosorbent assay (ELISA)
In another embodiment, the patient to be treated has a serum level of cytokeratin 18 (M30) of less than 500 U/ml, or less than 400 U/ml, or less than 300 U/ml, or less than 200 U/ml, or less than 150 U/ml. The level of the M30 fragment of cytokeratin-18 can be determined by known methods, e.g. by an ELISA.
(§1) A double-blinded, randomized, placebo-controlled phase II clinical trial was conducted as described in the following.
(§2) Patients with a clinical diagnosis of non-alcoholic hepatic steatosis were randomized to a 12-week treatment period and a 4-week follow-up. Patients were divided into three groups. The first groups received 1,500 mg Nor-UDCA per day (6 capsules with 250 mg Nor-UDCA in each capsule). The second group received 500 mg Nor-UDCA per day (2 capsules with 250 mg Nor-UDCA in each capsule and 4 capsules with 250 mg placebo in each capsule). The third group received 6 capsules with 250 mg placebo in each capsule.

[2] = tested on: Patients with a clinical diagnosis of non-alcoholic hepatic steatosis; assay: Liver enzymes (serum ALT, AST, GGT, AP, bilirubin), phase II clinical trial; format: in vivo, human; details: for change of AST: V2 to V6-LOCF; for ALT change, Mean ± SD / ALT/AST ratio change, Mean ± SD / AST change, Mean ± SD / Serum bilirubin change, Mean ± SD: V6 (LOCF)-V2; for patients fulfilling outcome criterion ALT≤0.8 ULN: patients with ALT>0.8 at baseline; for patients fulfilling outcome criterion ALT<ULN: patients with ALT>1.0 at baseline; for patients fulfilling outcome criterion ALT<1.5 ULN: patients with ALT>1.5 at baseline;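 on Serum bilirubin, Mean ± SD: unit mg/dL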
Description: as §1, §2
The effects of Nor-UDCA on liver enzyme values have been assessed with respect to the courses of ALT, AST, GGT, AP and serum bilirubin. In addition, treatment effects with respect to pre-defined outcome criteria based on the upper limits of normal (ULN) of ALT, AST and GGT were examined.
The serum levels of ALT, AST, GGT, AP and serum bilirubin were determined by established standard laboratory methods.

[3] = N500 (500 mg/day), V2 baseline week 0
[4] = N1500 (1,500 mg/day), V2 baseline week 0
[5] = N1500 (1,500 mg/day), V3 week 2
[6] = N1500 (1,500 mg/day), V4 week 4
[7] = N1500 (1,500 mg/day), V5 week 8
[8] = N1500 (1,500 mg/day), V6 (LOCF)
[9] = N1500 (1,500 mg/day), V6 week 12

## CC(CC(=O)O)[C@H]1CCC2[C@H]3C(CC[C@@]21C)[C@@]1(C)CCC(O)C[C@H]1C[C@@H]3O (stereo partly shown) [Nor-UDCA, 24-nor-ursodeoxycholic acid]
[1]; N500 (500 mg/day)
  change of mean Cytokeratin 18 (M30 fragment) during the study: −34.4 U/I
  change of mean Cytokeratin 18 (M65 fragment) during the study: −106.0 U/I
  mean value of Cytokeratin 18 (M30 fragment): 389.4 U/I
  mean value of Cytokeratin 18 (M65 fragment): 590.2 U/I
[1]; N1500 (1,500 mg/day)
  change of mean Cytokeratin 18 (M30 fragment) during the study: −30.3 U/I
  change of mean Cytokeratin 18 (M65 fragment) during the study: −80.6 U/I
  mean value of Cytokeratin 18 (M30 fragment): 333.7 U/I
  mean value of Cytokeratin 18 (M65 fragment): 519.9 U/I
[2]; N500 (500 mg/day)
  mean absolute change of ALT from V2 to V6-LOCF: −7.0 U/I
  patients fulfilling criterion AST>0.33 ULN to ≤0.67 ULN: 26.4%
  patients fulfilling outcome criterion GGT>0.33 ULN to ≤0.67: 13.0%
  patients with combined criterion of ALT and/or AST decrease 15%: 49.3%
  proportion of patients fulfilling criterion AST<1.5 ULN: 50.0%
  proportion of patients fulfilling criterion AST<ULN: 27.3%
  proportion of patients, criterion GGT ULN: 12.2%
  change of AST: −3.8 U/I
  ALT change, Mean ± SD: −7.0 ± 27.4 U/l
  ALT/AST ratio change, Mean ± SD: −0.05 and −0.05 ± 0.37
  AST change, Mean ± SD: −3.8 ± 14.3 U/l
  Serum bilirubin change, Mean ± SD: -0.01 ± 0.22 mg/dL
  patients fulfilling outcome criterion ALT≤0.8 ULN: 14.8%
  patients fulfilling outcome criterion ALT<ULN: 16.9%
  patients fulfilling outcome criterion ALT<1.5 ULN: 37.9%
[2]; N500 (500 mg/day), V2
  GGT: 144.7 U/I
[2]; [3]
  ALT, Mean ± SD: 80.3 ± 33.3 U/l
  ALT/AST, Mean ± SD: 1.71 ± 0.50
  AP, Mean ± SD: 83.9 ± 27.6 U/l
  AST, Mean ± SD: 49.8 ± 27.4 U/l
  GGT, Mean ± SD: 144.7 ± 160.0 U/l
  Serum bilirubin, Mean ± SD: 0.64 ± 0.40 mg/dL
[2]; N500 (500 mg/day), V3 week 2
  ALT, Mean ± SD: 79.4 ± 40.6 U/l
  ALT/AST, Mean ± SD: 1.70 ± 0.51
  AP, Mean ± SD: 88.3 ± 34.3 U/l
  AST, Mean ± SD: 47.9 ± 22.4 U/l
  GGT, Mean ± SD: 151.9 ± 166.4 U/l
  Serum bilirubin, Mean ± SD: 0.63 ± 0.38 mg/dL
[2]; N500 (500 mg/day), V4 week 4
  ALT, Mean ± SD: 75.2 ± 34.6 U/l
  ALT/AST, Mean ± SD: 1.67 ± 0.48
  AP, Mean ± SD: 86.5 ± 34.3 U/l
  AST, Mean ± SD: 46.0 ± 18.8 U/l
  GGT, Mean ± SD: 138.9 ± 141.6 U/l
  Serum bilirubin, Mean ± SD: 0.61 ± 0.38 mg/dL
[2]; N500 (500 mg/day), V5 week 8
  ALT, Mean ± SD: 75.6 ± 36.8 U/l
  ALT/AST, Mean ± SD: 1.66 ± 0.47
  AP, Mean ± SD: 86.1 ± 30.0 U/l
  AST, Mean ± SD: 46.9 ± 24.4 U/l
  GGT, Mean ± SD: 133.6 ± 124.2 U/l
  Serum bilirubin, Mean ± SD: 0.64 ± 0.41 mg/dL
[2]; N500 (500 mg/day), V6 (LOCF)
  ALT, Mean ± SD: 72.8 ± 33.2 U/l
  ALT/AST, Mean ± SD: 1.67 ± 0.48
  AP, Mean ± SD: 86.9 ± 32.2 U/l
  AST, Mean ± SD: 45.6 ± 24.7 U/l
  GGT, Mean ± SD: 137.6 ± 144.8 U/l
  Serum bilirubin, Mean ± SD: 0.62 ± 0.38 mg/dL
[2]; N500 (500 mg/day), V6-LOCF
  GGT: 137.6 U/I
[2]; N500 (500 mg/day), V6 week 12
  ALT, Mean ± SD: 70.8 ± 31.6 U/l
  ALT/AST, Mean ± SD: 1.66 ± 0.45
  AP, Mean ± SD: 87.4 ± 32.7 U/l
  AST, Mean ± SD: 43.9 ± 20.4 U/l
  GGT, Mean ± SD: 139.2 ± 147.6 U/l
  Serum bilirubin, Mean ± SD: 0.62 ± 0.36 mg/dL
[2]; N1500 (1,500 mg/day)
  mean absolute change of ALT from V2 to V6-LOCF: −17.2 U/I
  patients fulfilling criterion AST>0.33 ULN to ≤0.67 ULN: 32.7%
  patients fulfilling outcome criterion GGT>0.33 ULN to ≤0.67: 21.6%
  patients with combined criterion of ALT and/or AST decrease 15%: 71.6%
  proportion of patients fulfilling criterion AST<1.5 ULN: 75.0%
  proportion of patients fulfilling criterion AST<ULN: 54.5%
  proportion of patients, criterion GGT ULN: 31.0%
  change of AST: −8.7 U/I
  ALT change, Mean ± SD: −17.2 ± 23.3 U/l
  ALT/AST ratio change, Mean ± SD: −0.14 and −0.14 ± 0.42
  AST change, Mean ± SD: −8.7 ± 13.6 U/l
  Serum bilirubin change, Mean ± SD: -0.03 ± 0.20 mg/dL
  patients fulfilling outcome criterion ALT≤0.8 ULN: 17.5%
  patients fulfilling outcome criterion ALT<ULN: 35.7%
  patients fulfilling outcome criterion ALT<1.5 ULN: 53.1%
[2]; N1500 (1,500 mg/day), V2
  GGT: 178.8 U/I
[2]; [4]
  ALT, Mean ± SD: 78.6 ± 34.2 U/l
  ALT/AST, Mean ± SD: 1.68 ± 0.53
  AP, Mean ± SD: 92.0 ± 36.6 U/l
  AST, Mean ± SD: 49.3 ± 25.1 U/l
  GGT, Mean ± SD: 178.8 ± 205.6 U/l
  Serum bilirubin, Mean ± SD: 0.61 ± 0.32 mg/dL
[2]; [5]
  ALT, Mean ± SD: 72.8 ± 33.1 U/l
  ALT/AST, Mean ± SD: 1.66 ± 0.41
  AP, Mean ± SD: 95.4 ± 40.1 U/l
  AST, Mean ± SD: 43.7 ± 15.7 U/l
  GGT, Mean ± SD: 170.1 ± 217.9 U/l
  Serum bilirubin, Mean ± SD: 0.52 ± 0.26 mg/dL
[2]; [6]
  ALT, Mean ± SD: 62.6 ± 24.7 U/l
  ALT/AST, Mean ± SD: 1.53 ± 0.41
  AP, Mean ± SD: 90.9 ± 32.0 U/l
  AST, Mean ± SD: 42.6 ± 19.9 U/l
  GGT, Mean ± SD: 128.5 ± 126.1 U/l
  Serum bilirubin, Mean ± SD: 0.53 ± 0.26 mg/dL
[2]; [7]
  ALT, Mean ± SD: 62.0 ± 27.9 U/l
  ALT/AST, Mean ± SD: 1.54 ± 0.34
  AP, Mean ± SD: 91.1 ± 33.3 U/l
  AST, Mean ± SD: 40.5 ± 16.3 U/l
  GGT, Mean ± SD: 111.5 ± 112.7 U/l
  Serum bilirubin, Mean ± SD: 0.54 ± 0.28 mg/dL
[2]; [8]
  ALT, Mean ± SD: 61.8 ± 28.3 U/l
  ALT/AST, Mean ± SD: 1.54 ± 0.34
  AP, Mean ± SD: 91.8 ± 32.1 U/l
  AST, Mean ± SD: 40.8 ± 19.1 U/l
  GGT, Mean ± SD: 111.7 ± 116.3 U/l
  Serum bilirubin, Mean ± SD: 0.57 ± 0.31 mg/dL
[2]; N1500 (1,500 mg/day), V6-LOCF
  GGT: 111.7 U/I
[2]; [9]
  ALT, Mean ± SD: 62.8 ± 29.1 U/l
  ALT/AST, Mean ± SD: 1.55 ± 0.34
  AP, Mean ± SD: 92.9 ± 31.3 U/l
  AST, Mean ± SD: 41.3 ± 19.8 U/l
  GGT, Mean ± SD: 109.6 ± 115.8 U/l
  Serum bilirubin, Mean ± SD: 0.56 ± 0.32 mg/dL
[2]; N1500 and N500 versus Placebo
  differences in the course of AP and serum bilirubin values between N1500, N500 and Placebo: no relevant differences
